The values below come from PubChem BioAssay AID434987 (Southern Research Specialized Biocontainment Screening …, 2010).

The structures appear in SMILES notation. Calls of active or inactive are those of the source. No rule for the calls is given here.

The assay concerns M. tuberculosis H37Rv growth inhibition with meropenem. Kind of assay: dose response, H37Rv, with and without meropenem (AID 434987).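 Also: growth over 7 days at 37 °C before Alamar Blue read on day 9.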
The mark [1] stands for this setting: M. tuberculosis H37Rv growth inhibition, measured here: IC50 without meropenem.
Setting [2] is: M. tuberculosis H37Rv growth inhibition, measured here: IC90 without meropenem.
Setting [3] is: measured here: IC90 with meropenem.

As usually defined, the IC50 is the concentration that inhibits the measured activity by half. As a reminder, the IC90 is the concentration needed for an effect of 90%. Read a high IC90 as weaker potency. Consider `O=C(NN=C1CCCC1)c1cccs1`, for which the IC50 was 23.6 µM (inactive). The IC50 under setting [1] is 50.3 µM. Under setting [2], this compound gave an IC90 of over 100 µM. In addition, under setting [3], the IC90 is over 100 µM.
Regarding `O=C(O/N=C\c1ccc(N2CCCCC2)c([N+](=O)[O-])c1)c1c(F)cccc1F`, the IC50 was > 100 µM (inactive). Further, the IC50 under setting [1] is over 100 µM. In addition, the IC90 under setting [2] is over 100 µM. This compound registered a concentration for an effect of 90% (IC90) under setting [3] of over 100 µM.
`COc1ccc(C2CC(c3c(-c4ccccc4)c4cc(Cl)ccc4[nH]c3=O)=NN2S(C)(=O)=O)cc1` (stereo not given): the IC50 is > 100 µM (inactive). Under setting [1], this compound came in with an IC50 of over 100 µM. For the same compound, the IC90 under setting [2] is over 100 µM. The compound further registered an IC90 under setting [3] of over 100 µM.
As to `O=C(Nc1ccccc1Br)c1cccc2ccccc12`, the IC50 is > 100 µM (inactive). Under setting [1], this compound had an IC50 of over 100 µM. In addition, the IC90 under setting [2] was over 100 µM. The compound also registered an IC90 under setting [3] of over 100 µM.
Consider `COc1ccc(/C=C/C(=O)NCC(=O)N/N=C/c2cc(Br)ccc2OCc2ccccc2)cc1`, for which the IC50 is > 100 µM (inactive). The compound also yielded an IC50 under setting [1] of over 100 µM. The IC90 under setting [2] was over 100 µM. Also, the IC90 under setting [3] was over 100 µM.
Turning to `COc1ccc2oc(=N)c(C(=O)Nc3ccccc3)cc2c1`, the IC50 is > 100 µM (inactive). Under setting [1], this compound showed an IC50 of over 100 µM. For the same compound, the IC90 under setting [2] was over 100 µM. The compound further returned an IC90 under setting [3] of over 100 µM.
For `CCOC(=O)CNC(=O)c1cccnc1Oc1ccc(Cl)cc1`, the IC50 is 11.4 µM. For the same compound, the IC50 under setting [1] turned out to be 36.7 µM. Under setting [2], this compound came in with an IC90 of over 100 µM. Under setting [3], this compound came in with an IC90 of over 100 µM.
Turning to `Cc1cc(N2CCCCCC2)nc(-c2ccccc2O)n1`, the IC50 was 67.2 µM (inactive). Under setting [1], this compound had an IC50 of 91.3 µM. Besides, under setting [2], the IC90 is over 100 µM. The compound also showed an IC90 under setting [3] of over 100 µM.
With `Cc1ccccc1C(=O)Oc1ccccc1N1C(=O)C2CC=CCC2C1=O` (stereo not given), the IC50 was > 100 µM (inactive). The compound also came in with a concentration for half-maximal inhibition (IC50) under setting [1] of over 100 µM. Besides, under setting [2], the IC90 is over 100 µM. In addition, the IC90 under setting [3] was over 100 µM.
On to `O=C(O)Cc1csc(Nc2cccc(Cl)c2)n1`, for which the IC50 was > 100 µM (inactive). Further, the IC50 under setting [1] was over 100 µM. The same compound had an IC90 under setting [2] of over 100 µM. Also, the IC90 under setting [3] was over 100 µM.
As for `COc1ccccc1N(C)S(=O)(=O)c1ccc(C(=O)OCC(=O)N2CCCCCC2)cc1`, the IC50 was > 50 µM (inactive). Further, the IC50 under setting [1] is over 100 µM. The 90% effect concentration (IC90) under setting [2] was over 100 µM. The same compound gave an IC90 under setting [3] of over 50 µM.
For `Cc1cc(C(=O)CSc2nnnn2-c2ccccc2)c(C)n1-c1ccc2c(c1)OCO2`, the IC50 is 44.9 µM (inactive). For the same compound, under setting [1], the IC50 came to 49.7 µM. The IC90 under setting [2] is over 100 µM. Besides, the IC90 under setting [3] stood at 60.9 µM.
In the same order, the values of `O=C(OCn1nnc2ccccc2c1=O)c1ccc2c(=O)n3c(nc2c1)CCC3` are 18 µM (inactive), 35.4 µM, over 100 µM and 26.1 µM.
In the same order, the values of `Cc1cccc(/C=N\NC(=O)c2csnn2)c1` are 39.5 µM, over 100 µM, over 100 µM and over 100 µM.
In the same order, the values of `CCC(=O)Nc1cc(OC)c(NC(=O)c2ccccc2)cc1OC` are 22.7 µM, 93.4 µM, over 100 µM and over 100 µM.
As for `COc1cccc(C(=O)C2CCCN(Cc3ccccn3)C2)c1` (stereo not given), the IC50 was 1.46 µM. The IC50 under setting [1] was determined as 16.2 µM. The compound also registered an IC90 under setting [2] of over 100 µM. The compound also showed an IC90 under setting [3] of 97.5 µM.
For `c1ccc2c(c1)Cn1nc(Cc3nc4c(s3)CCCC4)nc1-2`, in that order: 47.5 µM (inactive), 79.1 µM, over 100 µM and 53 µM.
Turning to `CSc1ccc(/C=C/C(=O)Nc2ccccc2)cc1`, the IC50 is > 100 µM (inactive). The compound also returned an IC50 under setting [1] of over 100 µM. The same compound returned an IC90 under setting [2] of over 100 µM. The IC90 under setting [3] was over 100 µM.
Consider `COc1cc(NC(=O)c2ccccc2F)c(OC)cc1NC(=O)CN1CCOCC1`, for which the IC50 is 29.2 µM. The compound further registered an IC50 under setting [1] of over 100 µM. In addition, the IC90 under setting [2] was over 100 µM. This compound also displayed an IC90 under setting [3] of over 50 µM.
Take `COc1ccc2ccccc2c1/C=N/NC(=O)c1cccc(Br)c1`: the IC50 is > 100 µM (inactive). Besides, under setting [1], the IC50 is over 100 µM. The compound also displayed an IC90 under setting [2] of over 100 µM. The IC90 under setting [3] is over 100 µM.
Consider `Nc1nc2ccccc2n1C(=O)c1cccs1`, for which the IC50 was 5.84 µM. The compound also displayed an IC50 under setting [1] of 42.8 µM. The IC90 under setting [2] is over 100 µM. This compound registered an IC90 under setting [3] of over 100 µM.
For `Cc1cc2ccccc2n1CCNC(=O)COc1ccccc1`, the IC50 is 30.1 µM (inactive). Besides, the IC50 under setting [1] was found to be 44.7 µM. Moreover, under setting [2], the IC90 was found to be 60.3 µM. This compound also came in with an IC90 under setting [3] of 42.8 µM.
Regarding `S=C(NN=C1C2CC3CC(C2)CC1C3)Nc1ccccc1`, the IC50 is 45.7 µM (inactive). Further, the IC50 under setting [1] was 48.7 µM. Under setting [2], this compound displayed an IC90 of 54.7 µM. Also, under setting [3], the IC90 amounted to 51.4 µM.
In the same order, the values of `Cc1cccc(-n2nc([N+](=O)[O-])c(=NC3CCN(Cc4ccccc4)CC3)n2O)c1` are 25.9 µM (inactive), 45.8 µM, 49 µM and 30.5 µM.
Turning to `N#Cc1ccc(NC(=O)COC(=O)C2=COCCO2)cc1`, the IC50 was > 100 µM (inactive). Under setting [1], this compound gave an IC50 of over 100 µM. Besides, the IC90 under setting [2] was over 100 µM. This compound also yielded an IC90 under setting [3] of over 100 µM.
For `NC(=O)CC(NC(=O)Cc1ccc(Br)cc1)c1ccc(NC2CCCCCC2)c([N+](=O)[O-])c1` (stereo not given), the IC50 is 72.9 µM (inactive). Besides, the IC50 under setting [1] is over 100 µM. Under setting [2], this compound gave an IC90 of over 100 µM. This compound also returned an IC90 under setting [3] of over 100 µM.
Turning to `Cn1ccnc1C(=O)Cc1ccc([N+](=O)[O-])cc1`, the concentration for half-maximal inhibition (IC50) is 7.78 µM. For the same compound, the IC50 under setting [1] was found to be 44.1 µM. Besides, the IC90 under setting [2] came out at 48.9 µM. Besides, the IC90 under setting [3] worked out at 22.6 µM.
Regarding `COc1ccc([N+](=O)[O-])cc1NS(=O)(=O)c1ccc(C(=O)N2CCCC2)cc1`, the IC50 was > 100 µM (inactive). Under setting [1], this compound returned an IC50 of over 100 µM. The IC90 under setting [2] is over 100 µM. Under setting [3], this compound showed an IC90 of over 100 µM.
On to `O=C(/C=C/c1ccccn1)c1cc(Br)ccc1O`, for which the IC50 was 21.8 µM (inactive). Besides, under setting [1], the IC50 is 37.4 µM. The IC90 under setting [2] was found to be 58.6 µM. This compound also displayed an IC90 under setting [3] of 45.1 µM.
With `COc1cc(NC(=S)NC(=O)c2ccco2)ccc1NC(=O)C(C)C`, the IC50 is 99.6 µM (inactive). Besides, under setting [1], the IC50 is over 100 µM. Further, under setting [2], the IC90 is over 100 µM. Besides, under setting [3], the IC90 was over 100 µM.
Take `Cn1c2ccccc2c(=O)c2cc(C#CC3(O)CCCCC3)ccc21`: the IC50 was > 100 µM (inactive). This compound also gave an IC50 under setting [1] of over 100 µM. The same compound yielded an IC90 under setting [2] of over 100 µM. Under setting [3], this compound displayed an IC90 of over 100 µM.
In the case of `C/C(=N\NC(=O)c1cccc(Cl)c1)c1cccc(NC(=O)C(C)C)c1`, the IC50 is > 100 µM (inactive). This compound registered an IC50 under setting [1] of over 100 µM. Under setting [2], the IC90 was over 100 µM. In addition, under setting [3], the IC90 is over 100 µM.
Take `O=C1/C(=C/c2ccncc2)CCc2ccccc21`: the IC50 is 16.8 µM (inactive). Under setting [1], this compound registered an IC50 of 24.3 µM. This compound also registered an IC90 under setting [2] of 36.4 µM. This compound displayed an IC90 under setting [3] of 29.1 µM.
In the same order, the values of `CCN(CC)CCCNC(=O)c1c(O)c2ccccc2n(Cc2ccccc2)c1=O` are 12.6 µM (inactive), 23.2 µM, 32.7 µM and 13.8 µM.
For `CC(C)Oc1ccc(N2CC(C(=O)Nc3ccccc3F)CC2=O)cc1` (stereo not given), in that order: 56.8 µM (inactive), over 100 µM, over 100 µM and over 100 µM.
For `CN1c2ccccc2C(=O)NC1c1ccc([N+](=O)[O-])s1` (stereo not given), in that order: 3.09 µM, 20.7 µM, 38.4 µM and 33.3 µM.
On to `Cc1ccccc1OCC(=O)N/N=C/c1cccc(Oc2ccc([N+](=O)[O-])cc2[N+](=O)[O-])c1`, for which the IC50 is 1.14 µM. The same compound had an IC50 under setting [1] of 4.24 µM. The IC90 under setting [2] was found to be 47.8 µM. Under setting [3], this compound yielded an IC90 of 5.4 µM.
For `Cc1cccnc1NC(=O)c1c(O)c2cccc3c2n(c1=O)CCC3`, in that order: 94.4 µM (inactive), over 100 µM, over 100 µM and over 100 µM.
In the same order, the values of `CCOC(=O)c1sc(NC(=O)CN2CCCC2)c(C(=O)OCC)c1C` are > 100 µM (inactive), over 100 µM, over 100 µM and over 100 µM.
As to `CC(OC(=O)c1ccc([N+](=O)[O-])o1)C(=O)NC1CCCCC1C` (stereo not given), the IC50 was 15.6 µM (inactive). Under setting [1], this compound had an IC50 of 26.3 µM. Besides, the IC90 under setting [2] was determined as 70.6 µM. Under setting [3], the IC90 was over 100 µM.
On to `CCCCCc1nnc(NC(=O)C2COc3ccccc3O2)s1` (stereo not given), for which the IC50 was 62.5 µM (inactive). Under setting [1], the IC50 was over 100 µM. For the same compound, under setting [2], the IC90 is over 100 µM. The IC90 under setting [3] was over 100 µM.
On to `N#Cc1cc2c(nc1SCC(=O)Nc1sc3c(c1C#N)CCC3)CCCC2`, for which the IC50 was > 100 µM (inactive). The IC50 under setting [1] is over 100 µM. Under setting [2], the IC90 is over 100 µM. Further, under setting [3], the IC90 is over 100 µM.
Take `Cn1nnnc1Sc1ncnc2scc(-c3cccc(F)c3)c12`: the IC50 is 15.4 µM. This compound also showed an IC50 under setting [1] of over 100 µM. The IC90 under setting [2] is over 100 µM. For the same compound, the IC90 under setting [3] was over 100 µM.
Consider `CCCCN1C(=O)c2ccc(C(=O)Nc3cccc(C)c3C)cc2C1=O`, for which the IC50 was > 100 µM (inactive). This compound also had a half-inhibitory concentration (IC50) under setting [1] of over 100 µM. The same compound gave an IC90 under setting [2] of over 100 µM. The IC90 under setting [3] was over 100 µM.
In the case of `CCN(CC)c1ccc(N=Cc2c(O)n(-c3ccc(Cl)cc3)c(=O)[nH]c2=O)cc1`, the IC50 was 20.9 µM. The compound further gave an IC50 under setting [1] of over 100 µM. Also, the IC90 under setting [2] was over 100 µM. Moreover, under setting [3], the IC90 is over 100 µM.
